According to PubChem BioAssay (NCI):
Values joined by “and” are separate entries in the source; they are usually repeats but may differ in a detail not shown here. Equal values may be shown once.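 In this assay, cells in 96-well plates receive the compound at five concentrations for 48 hours. Endpoints are linearly interpolated between the surrounding concentrations. Abbreviation: GI50, concentration required for 50% inhibition of growth. Definition used: TGI = concentration required for complete inhibition of growth.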

Legend:
Test in all cases: growth of human tumour cells (NCI), 48 h
OVCAR-3 ovarian = tested on: OVCAR-3 ovarian
TK-10 renal = tested on: TK-10 renal
RPMI-8226 leukemia = tested on: RPMI-8226 leukemia
SNB-75 CNS = tested on: SNB-75 CNS
SNB-19 CNS = tested on: SNB-19 CNS
HOP-92 NSCLC = tested on: HOP-92 NSCLC
OVCAR-4 ovarian = tested on: OVCAR-4 ovarian
OVCAR-5 ovarian = tested on: OVCAR-5 ovarian
A549 NSCLC = tested on: A549 NSCLC
UACC-257 melanoma = tested on: UACC-257 melanoma

## Brc1ccc2c(c1)-c1ccccc1C1=NCCN12
OVCAR-3 ovarian
  GI50: 2.08 µM
  TGI: 8.04 µM
TK-10 renal
  GI50: 1.5 µM
  TGI: 7.18 µM
RPMI-8226 leukemia
  GI50: 1.71 µM
  TGI: 4.95 µM
SNB-75 CNS
  GI50: 1.53 µM
  TGI: 4.15 µM
SNB-19 CNS
  GI50: 2.17 µM
  TGI: 11.6 µM
HOP-92 NSCLC
  GI50: 1.33 µM
  TGI: 5.74 µM
OVCAR-4 ovarian
  GI50: 1.43 µM
  TGI: 8.53 µM
OVCAR-5 ovarian
  GI50: 1.64 µM
  TGI: 10.4 µM
A549 NSCLC
  GI50: 0.548 µM
  TGI: 3.58 µM
UACC-257 melanoma
  GI50: 1.59 µM
  TGI: 4.51 µM

## Cn1ncc2c(c1=O)Nc1ccccc1S2(=O)=O
OVCAR-3 ovarian
  TGI: > 100 µM
TK-10 renal
  TGI: > 100 µM
RPMI-8226 leukemia
  TGI: 97.6 µM
SNB-75 CNS
  TGI: > 100 µM
SNB-19 CNS
  TGI: > 100 µM
HOP-92 NSCLC
  TGI: > 100 µM
OVCAR-4 ovarian
  TGI: > 100 µM
OVCAR-5 ovarian
  TGI: > 100 µM
A549 NSCLC
  TGI: > 100 µM
UACC-257 melanoma
  TGI: > 100 µM

## NC1CC(n2ccc(=O)[nH]c2=O)OC1C(O)CO (stereo unspecified)
OVCAR-3 ovarian
  TGI: > 100 µM
TK-10 renal
  TGI: > 100 µM
RPMI-8226 leukemia
  TGI: > 100 µM
SNB-75 CNS
  TGI: > 100 µM
SNB-19 CNS
  TGI: > 100 µM
HOP-92 NSCLC
  TGI: > 100 µM
OVCAR-4 ovarian
  TGI: > 100 µM
OVCAR-5 ovarian
  TGI: > 100 µM
A549 NSCLC
  TGI: > 100 µM
UACC-257 melanoma
  TGI: > 100 µM

## COC(=O)c1ccccc1NCc1cc(O)ccc1O
OVCAR-3 ovarian
  TGI: 32.5 µM
TK-10 renal
  TGI: > 57.6 µM
RPMI-8226 leukemia
  TGI: 96.9 µM
SNB-75 CNS
  TGI: > 75.9 µM
SNB-19 CNS
  TGI: > 74.1 µM
HOP-92 NSCLC
  TGI: 35.3 µM
OVCAR-4 ovarian
  TGI: 34.9 µM
OVCAR-5 ovarian
  TGI: > 62.1 µM
A549 NSCLC
  TGI: > 83.1 µM
UACC-257 melanoma
  TGI: 31.2 µM

## Cn1c(=O)c(-c2c(Cl)cccc2Cl)cc2cnc(Nc3ccc(N4CCOCC4)cc3)nc21
OVCAR-3 ovarian
  GI50: 0.323 µM
  TGI: > 100 µM
TK-10 renal
  TGI: 1.24 µM
RPMI-8226 leukemia
  GI50: 0.356 µM
  TGI: 1.78 µM
SNB-75 CNS
  GI50: < 0.01 µM
  TGI: 0.0916 µM
SNB-19 CNS
  GI50: 0.561 µM
  TGI: > 22.6 µM
HOP-92 NSCLC
  GI50: 0.211 µM
  TGI: 1.93 µM
OVCAR-4 ovarian
  GI50: 0.404 µM
  TGI: > 100 µM
OVCAR-5 ovarian
  GI50: 0.0349 µM
  TGI: 0.799 µM
A549 NSCLC
  GI50: 0.666 µM
UACC-257 melanoma
  TGI: > 22.4 µM

## CCCNc1ncnc2c1cnn2C
OVCAR-3 ovarian
  TGI: > 100 µM
TK-10 renal
  TGI: > 100 µM
RPMI-8226 leukemia
  TGI: > 100 µM
SNB-75 CNS
  TGI: > 100 µM
SNB-19 CNS
  TGI: > 100 µM
HOP-92 NSCLC
  TGI: > 100 µM
OVCAR-4 ovarian
  TGI: > 100 µM
OVCAR-5 ovarian
  TGI: > 100 µM
A549 NSCLC
  TGI: > 100 µM
UACC-257 melanoma
  TGI: > 100 µM

## Cc1c(N)nc(C2CC(=O)N2CC(N)C(N)=O)nc1C(=O)NC(C(=O)NC(C)C(O)C(C)C(=O)NC(C(=O)NCCc1nc(-c2nc(C(=O)NCCNCC(C)O)cs2)cs1)C(C)O)C(OC1OC(CO)C(O)C(O)C1OC1OC(CO)C(O)C(OC(N)=O)C1O)c1cnc[nH]1 (stereo unspecified)
OVCAR-3 ovarian
  GI50: 1.63 µM
  TGI: 20.6 µM and > 55 µM
TK-10 renal
  GI50: 11.1 µM
  TGI: 50 µM and > 100 µM
RPMI-8226 leukemia
  GI50: > 50 µM
  TGI: > 50 µM
SNB-75 CNS
  GI50: 3.06 µM
  TGI: 23.9 µM and 6.66 µM
SNB-19 CNS
  GI50: 13.6 µM
  TGI: 50 µM and > 100 µM
HOP-92 NSCLC
  TGI: 9.68 µM
OVCAR-4 ovarian
  GI50: 10.7 µM
  TGI: 50 µM and > 100 µM
OVCAR-5 ovarian
  GI50: 9.82 µM
  TGI: 50 µM and 57.4 µM
A549 NSCLC
  GI50: 4.68 µM
  TGI: 50 µM and > 100 µM
UACC-257 melanoma
  GI50: 6.2 µM
  TGI: 49.4 µM

## CCOC(=O)/C(=C/c1ccc[nH]1)P(=O)(OCC)OCC
OVCAR-3 ovarian
  TGI: > 100 µM
TK-10 renal
  TGI: > 100 µM
RPMI-8226 leukemia
  TGI: > 100 µM
SNB-75 CNS
  TGI: > 100 µM
SNB-19 CNS
  TGI: > 100 µM
HOP-92 NSCLC
  TGI: > 100 µM
OVCAR-4 ovarian
  TGI: > 100 µM
OVCAR-5 ovarian
  TGI: > 100 µM
A549 NSCLC
  TGI: > 100 µM
UACC-257 melanoma
  TGI: > 100 µM

## COc1cc([C@H]2c3cc(O)c(OC)cc3C[C@]3(O)[C@@H]2CO[C@@H]3O)ccc1O
OVCAR-3 ovarian
  TGI: > 100 µM
TK-10 renal
  TGI: > 100 µM
RPMI-8226 leukemia
  TGI: > 100 µM
SNB-75 CNS
  TGI: > 100 µM
SNB-19 CNS
  TGI: > 100 µM
HOP-92 NSCLC
  TGI: > 100 µM
OVCAR-4 ovarian
  TGI: > 100 µM
OVCAR-5 ovarian
  TGI: > 100 µM
A549 NSCLC
  TGI: > 100 µM
UACC-257 melanoma
  TGI: > 100 µM

## CCOC(=O)C1=C(O)c2c(OC)ccc(OC)c2C(=O)C1=O
OVCAR-3 ovarian
  TGI: > 100 µM
TK-10 renal
  TGI: > 100 µM
RPMI-8226 leukemia
  TGI: > 100 µM
SNB-75 CNS
  TGI: > 100 µM
SNB-19 CNS
  TGI: > 100 µM
HOP-92 NSCLC
  TGI: > 100 µM
OVCAR-4 ovarian
  TGI: > 100 µM
OVCAR-5 ovarian
  TGI: > 100 µM
A549 NSCLC
  TGI: > 100 µM
UACC-257 melanoma
  TGI: > 100 µM

## Cc1cc2c(SCc3ccccc3Cl)nc(N)nc2nc1C
OVCAR-3 ovarian
  TGI: > 100 µM
TK-10 renal
  TGI: > 100 µM
RPMI-8226 leukemia
  TGI: > 100 µM
SNB-75 CNS
  TGI: > 100 µM
SNB-19 CNS
  TGI: > 100 µM
HOP-92 NSCLC
  TGI: > 100 µM
OVCAR-4 ovarian
  TGI: > 100 µM
OVCAR-5 ovarian
  TGI: > 100 µM
A549 NSCLC
  TGI: > 100 µM
UACC-257 melanoma
  TGI: > 100 µM

## O=C1C(=O)c2c(ccc3ccccc23)-c2ccccc21
OVCAR-3 ovarian
  GI50: 0.25 µM
  TGI: 0.713 µM
TK-10 renal
  GI50: 2.17 µM
  TGI: 7.54 µM
RPMI-8226 leukemia
  GI50: 0.752 µM
  TGI: 5.26 µM
SNB-75 CNS
  GI50: 1.83 µM
  TGI: 4.03 µM
SNB-19 CNS
  GI50: 2.43 µM
  TGI: 7.97 µM
HOP-92 NSCLC
  GI50: 1.91 µM
  TGI: 5.52 µM
OVCAR-4 ovarian
  GI50: 1.21 µM
  TGI: 2.5 µM
OVCAR-5 ovarian
  GI50: 2.54 µM
  TGI: 7.45 µM
A549 NSCLC
  GI50: 2.83 µM
  TGI: 8.3 µM
UACC-257 melanoma
  GI50: 1.74 µM
  TGI: 4.07 µM
